Results from the supplement of paper PMC10307832.

Columns and labels:
Test in all cases: relative viability (nuclei count vs DMSO), 5 days (fraction); higher = more cells survive
[1] = compound: C#Cc1cccc(Nc2ncnc3cc(OC)c(OCCCCCCC(=O)NO)cc23)c1 [CUDC-101] + CC(=O)c1c(C)c2cnc(Nc3ccc(N4CCNCC4)cn3)nc2n(C2CCCC2)c1=O [Palbociclib] (partner 0.5 µM)
Method in brief: (§1)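 Relative viability was taken as the ratio of nuclei in treated wells to nuclei in vehicle wells. Lung cancer cell lines in 1536-well plates received compounds by pin tool one day after seeding, either one drug alone or a fixed anchor-drug dose plus five library-drug doses (not always all listed) in √10 steps. Nuclei were counted on 4× images after 5 days of treatment, and values are medians of duplicate plates.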

[2] = compound: C#Cc1cccc(Nc2ncnc3cc(OC)c(OCCCCCCC(=O)NO)cc23)c1 [CUDC-101] + Cc1cc(Nc2cc(N3CCN(C)CC3)nc(Sc3ccc(NC(=O)C4CC4)cc3)n2)n[nH]1 [Tozasertib] (partner 0.1 µM)
Method in brief: as §1

[3] = compound: C1=CC=C2C(=C1)N=C(S2)C(C#N)C3=NC(=NC=C3)NCCC4=CN=CC=C4 + COc1cc2c(Oc3ccc(NC(=O)C4(C(=O)Nc5ccc(F)cc5)CC4)cc3F)ccnc2cc1OCCCN1CCOCC1 [Foretinib] (partner 0.25 µM)
Method in brief: as §1

[4] = compound: C1=CC=C2C(=C1)N=C(S2)C(C#N)C3=NC(=NC=C3)NCCC4=CN=CC=C4 + O=C(CCCCCCC(=O)Nc1ccccc1)NO [Vorinostat] (partner 1 µM)
Method in brief: as §1

| Cell Line | relative viability ([1]; first compound 0.01 µM) | relative viability ([1]; first compound 0.03162 µM) | relative viability ([1]; first compound 0.1 µM) | relative viability ([1]; first compound 0.3162 µM) | relative viability ([1]; first compound 1 µM) | relative viability ([2]; first compound 0.01 µM) | relative viability ([2]; first compound 0.03162 µM) | relative viability ([2]; first compound 0.1 µM) | relative viability ([2]; first compound 0.3162 µM) | relative viability ([2]; first compound 1 µM) | relative viability ([3]; first compound 0.005 µM) | relative viability ([3]; first compound 0.01581 µM) | relative viability ([3]; first compound 0.05 µM) | relative viability ([3]; first compound 0.1581 µM) | relative viability ([3]; first compound 0.5 µM) | relative viability ([4]; first compound 0.005 µM) | relative viability ([4]; first compound 0.01581 µM) | relative viability ([4]; first compound 0.05 µM) | relative viability ([4]; first compound 0.1581 µM) | relative viability ([4]; first compound 0.5 µM) |
| --- | --- | --- | --- | --- | --- | --- | --- | --- | --- | --- | --- | --- | --- | --- | --- | --- | --- | --- | --- | --- |
| NCI-H2126 | 0.355 | 0.346 | 0.337 | 0.364 | 0.352 | 0.892 | 0.79 | 0.807 | 0.867 | 0.743 | 1.14 | 1.2 | 1.22 | 1.19 | 1.34 | 0.637 | 0.75 | 0.701 | 0.855 | 0.647 |
| NCI-H650 | 0.402 | 0.365 | 0.302 | 0.374 | 0.29 | 0.844 | 0.733 | 0.639 | 0.599 | 0.369 | 0.946 |  | 0.993 | 0.942 | 1.1 | 0.389 | 0.392 | 0.499 | 0.488 | 0.393 |
| 201T | 0.332 | 0.38 | 0.347 | 0.344 | 0.353 | 0.927 | 0.899 | 0.876 | 0.69 | 0.536 | 1.19 |  | 1.01 | 1.08 | 0.625 | 0.819 | 0.918 | 0.949 | 0.997 | 0.959 |
| LU99A | 0.332 | 0.391 | 0.374 | 0.425 | 0.212 | 0.273 | 0.269 | 0.242 | 0.277 | 0.273 | 0.727 | 0.853 | 0.701 | 0.843 | 0.789 | 0.417 | 0.529 |  | 0.622 | 0.477 |
| NCI-H647 | 0.417 | 0.345 | 0.383 | 0.386 | 0.253 | 0.235 | 0.338 | 0.266 | 0.223 | 0.211 | 1.08 | 1.27 | 1.28 | 1.32 | 1.14 | 0.427 | 0.553 | 0.411 | 0.661 | 0.605 |
| LC-2-ad | 0.501 | 0.553 | 0.477 | 0.482 | 0.451 | 0.445 | 0.47 | 0.449 | 0.326 | 0.276 | 0.858 | 0.994 | 0.883 | 0.921 | 0.828 | 0.621 | 0.704 | 0.676 | 0.823 | 0.612 |
| LK-2 | 0.824 | 0.662 | 0.574 | 0.593 | 0.194 | 0.149 | 0.222 | 0.185 | 0.195 | 0.139 | 1.21 | 1.21 | 1.29 | 1.06 | 1.64 | 0.294 | 0.278 | 0.369 | 0.333 | 0.355 |
| NCI-H520 | 0.227 | 0.199 | 0.277 | 0.32 | 0.225 | 0.443 | 0.434 | 0.449 | 0.401 | 0.304 | 0.718 | 0.983 | 0.853 | 0.878 | 0.842 | 0.532 | 0.858 | 0.667 | 0.826 | 0.707 |
| NCI-H1975 | 0.535 | 0.623 | 0.601 | 0.673 | 0.536 | 0.741 | 0.717 | 0.843 | 0.837 | 0.701 | 0.779 | 0.897 | 0.846 | 1.08 | 0.73 | 0.712 | 0.743 | 0.747 | 0.834 | 0.571 |
